# Source: patent US20250313572A1, “MACROCYCLIC MCL-1 INHIBITORS AND METHODS OF USE” (AbbVie Inc., priority 2017, published 2025)
# Read-outs that look alike come from different tables or passages of the source.
# What was measured:
# [1] = system: NCI-H929 human multiple myeloma tumor cell line; experiment: NCI-H929 cell viability assay (CellTiter-Glo, 24 hours); assay type: cell-based; conditions: Homo sapiens, NCI-H929, 24 h, read-out: H929 Viability IC50 (μM, 10% FBS), 10% FBS, 24 hours of compound treatment
# Method: Each concentration was tested in duplicate at least 3 independent times. A luminescent signal proportional to the number of viable cells following 24 hours of compound treatment was determined using the CellTiter-Glo® Luminescent Cell Viability Assay according to the manufacturer's recommendations (Promega Corp., Madison, WI). The plates were read in a Perkin Elmer Envision using a Luminescence protocol. To generate dose response curves the data is normalized to percent viability by setting the averages of the staurosporine (10 μM) and DMSO only control wells to 0% and 100% viability respectively.
# [2] = system: AMO-1 human multiple myeloma tumor cell line; experiment: AMO-1 cell viability assay (CellTiter-Glo, 24 hours); assay type: cell-based; conditions: Homo sapiens, AMO1, 24 h, read-out: AMO-1 Viability IC50 (μM, 10% FBS), 10% FBS, 24 hours of compound treatment
# GST-MCL-1 = GST-MCL-1 (Homo sapiens, UniProt Q07820); experiment: TR-FRET MCL-1 binding assay (competition with probe F-Bak)
# Method: Tb-anti-GST antibody was purchased from Invitrogen (Catalog No. PV4216).
# For the assay, an acoustic dispenser was used to prepare dilution series from 10 mM test compounds in 100% DMSO and directly transfer 160 nL into low volume 384-well assay plates. 8 μL of a protein/probe/antibody mix was then added to each well resulting in final concentrations listed below: • Test compound: 11 three-fold dilutions beginning at 25 μM
# The samples were then mixed on a shaker for 1 minute and incubated for an additional 2 hours at room temperature. For each assay plate, a probe/antibody and protein/antibody/probe mixture were included as a negative and a positive control, respectively. Fluorescence was measured on the Envision (Perkin Elmer) using a 340/35 nm excitation filter and 520/525 (F-Bak) and 495/510 nm (Tb-labeled anti-his antibody) emission filters. […] The TR-FRET assay can be performed in the presence of varying concentrations of human serum (HS) or fetal bovine serum (FBS). Compounds were tested both without HS and in the presence of 10% HS.
# [3] = MCL-1 Binding Ki (nM, 10% HS), in the presence of 10% HS (human serum)
# [4] = without HS, read-out: MCL-1 Binding Ki
# Sequence of GST-MCL-1 (Q07820 whole entry): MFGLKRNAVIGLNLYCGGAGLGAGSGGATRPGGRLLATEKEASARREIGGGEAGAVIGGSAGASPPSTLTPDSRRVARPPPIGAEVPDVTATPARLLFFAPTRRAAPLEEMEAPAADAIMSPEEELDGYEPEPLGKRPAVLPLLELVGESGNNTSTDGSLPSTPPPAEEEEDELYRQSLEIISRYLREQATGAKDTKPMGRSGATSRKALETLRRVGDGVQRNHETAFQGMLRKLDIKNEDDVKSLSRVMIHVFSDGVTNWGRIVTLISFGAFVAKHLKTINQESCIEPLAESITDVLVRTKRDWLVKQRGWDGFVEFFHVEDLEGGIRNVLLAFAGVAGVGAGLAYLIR
Structure (SMILES),IC50 [1] [µM],IC50 [2] [µM],Ki (GST-MCL-1; [3]) [nM],Ki (GST-MCL-1; [4]) [nM]
"COCCOCCOCC1CN(c2nccc(COc3ccc4cc3C[C@@H](C(=O)O)Oc3ncnc5sc(-c6ccc(F)cc6)c(c35)-c3c(C)c(Cl)c(c(Cl)c3C)O[C@H](CN3CCN(C)CC3)CO4)n2)C1 [Example 140, (7S,16R)-19,23-dichloro-1-(4-fluorophenyl)-10-{[2-(3-{[2-(2-methoxyethoxy)ethoxy]methyl}azetidin-1-yl)pyrimidin-4-yl]methoxy}-20,22-dimethyl-16-[(4-methylpiperazin-1-yl)methyl]-7,8,15,16-tetrahydro-18,21-etheno-9,13-(metheno)-6,14,17-trioxa-2-thia-3,5-diazacyclononadeca[1,2,3-cd]indene-7-carboxylic Acid]",0.244,0.242,166,34.9
"Cc1c(Cl)c2c(Cl)c(C)c1-c1c(-c3ccc(F)cc3)sc3ncnc(c13)O[C@@H](C(=O)O)Cc1cc(ccc1OCc1ccnc(C3=CCS(=O)(=O)CC3)n1)OC[C@@H](CN1CCN(C)CC1)O2 [Example 34, (7R,16R)-19,23-dichloro-10-{[2-(1,1-dioxo-1,2,3,6-tetrahydro-1λ^6-thiopyran-4-yl)pyrimidin-4-yl]methoxy}-1-(4-fluorophenyl)-20,22-dimethyl-16-[(4-methylpiperazin-1-yl)methyl]-7,8,15,16-tetrahydro-18,21-etheno-13,9-(metheno)-6,14,17-trioxa-2-thia-3,5-diazacyclononadeca[1,2,3-cd]indene-7-carboxylic Acid]",0.00242,0.00123,0.276,0.016
"COCCOCCOCCOCCOc1nccc(COc2ccc3cc2C[C@H](C(=O)O)Oc2ncnc4sc(-c5ccc(F)cc5)c(c24)-c2c(C)c(Cl)c(c(Cl)c2C)O[C@H](CN2CCN(C)CC2)CO3)n1 [Example 89, (7R,16R)-19,23-dichloro-1-(4-fluorophenyl)-20,22-dimethyl-16-[(4-methylpiperazin-1-yl)methyl]-10-({2-[(2,5,8,11-tetraoxatridecan-13-yl)oxy]pyrimidin-4-yl}methoxy)-7,8,15,16-tetrahydro-18,21-etheno-13,9-(metheno)-6,14,17-trioxa-2-thia-3,5-diazacyclononadeca[1,2,3-cd]indene-7-carboxylic Acid]",0.00299,0.00262,0.485,0.067
"Cc1c(Cl)c2c(Cl)c(C)c1-c1c(-c3ccc(F)cc3)sc3ncnc(c13)O[C@@H](C(=O)O)Cc1cc(ccc1OCc1ccnc(N3CCC(CC(=O)O)CC3)n1)OC[C@@H](CN1CCN(C)CC1)O2 [Example 49, (7R,16R)-10-({2-[4-(carboxymethyl)piperidin-1-yl]pyrimidin-4-yl}methoxy)-19,23-dichloro-1-(4-fluorophenyl)-20,22-dimethyl-16-[(4-methylpiperazin-1-yl)methyl]-7,8,15,16-tetrahydro-18,21-etheno-13,9-(metheno)-6,14,17-trioxa-2-thia-3,5-diazacyclononadeca[1,2,3-cd]indene-7-carboxylic Acid]",0.0431,0.0222,0.775,0.039
"Cc1c2ccc(c1Cl)O[C@H](CN1CCN(C)CC1)COc1ccc(OCc3ccnc(N4CCC5(CC4)CC(F)(F)CO5)n3)c(c1)C[C@H](C(=O)O)Oc1ncnc3sc(-c4ccc(F)cc4)c-2c13 [Example 78, (7R,16R)-19-chloro-10-{[2-(3,3-difluoro-1-oxa-8-azaspiro[4.5]decan-8-yl)pyrimidin-4-yl]methoxy}-1-(4-fluorophenyl)-20-methyl-16-[(4-methylpiperazin-1-yl)methyl]-7,8,15,16-tetrahydro-18,21-etheno-13,9-(metheno)-6,14,17-trioxa-2-thia-3,5-diazacyclononadeca[1,2,3-cd]indene-7-carboxylic Acid]",0.00552,0.000935,16,2.28
"COCCOCCOc1ccc(-c2ccccc2OC)nc1COc1ccc2cc1C[C@H](C(=O)O)Oc1ncnc3sc(-c4ccc(F)cc4)c(c13)-c1c(C)c(Cl)c(c(Cl)c1C)O[C@H](CN1CCN(C)CC1)CO2 [Example 178, (7R,16R)-19,23-dichloro-1-(4-fluorophenyl)-10-({3-[2-(2-methoxyethoxy)ethoxy]-6-(2-methoxyphenyl)pyridin-2-yl}methoxy)-20,22-dimethyl-16-[(4-methylpiperazin-1-yl)methyl]-7,8,15,16-tetrahydro-18,21-etheno-9,13-(metheno)-6,14,17-trioxa-2-thia-3,5-diazacyclononadeca[1,2,3-cd]indene-7-carboxylic Acid]",0.37,0.152,–,–
"Cc1c(Cl)c2c(Cl)c(C)c1-c1c(-c3ccc(F)cc3)sc3ncnc(c13)O[C@@H](C(=O)O)Cc1cc(ccc1OCc1ccnc(-c3ccc(O[C@H]4CO[C@H]5[C@@H]4OC[C@@H]5O)cc3)n1)OC[C@@H](CN1CCN(C)CC1)O2 [Example 174, (7R,16R)-19,23-dichloro-1-(4-fluorophenyl)-10-{[2-(4-{[(3S,3aR,6S,6aR)-6-hydroxyhexahydrofuro[3,2-b]furan-3-yl]oxy}phenyl)pyrimidin-4-yl]methoxy}-20,22-dimethyl-16-[(4-methylpiperazin-1-yl)methyl]-7,8,15,16-tetrahydro-18,21-etheno-13,9-(metheno)-6,14,17-trioxa-2-thia-3,5-diazacyclononadeca[1,2,3-cd]indene-7-carboxylic Acid]",–,–,0.2,0.008
"COCCOCCOCCOCCOCCOC[C@H]1CN(c2nccc(COc3ccc4cc3C[C@H](C(=O)O)Oc3ncnc5sc(-c6ccc(F)cc6)c(c35)-c3c(C)c(Cl)c(c(Cl)c3C)O[C@H](CN3CCN(C)CC3)CO4)n2)CCO1 [Example 83, (7R,16R)-19,23-dichloro-1-(4-fluorophenyl)-10-({2-[(2R)-2-(2,5,8,11,14,17-hexaoxaoctadecan-1-yl)morpholin-4-yl]pyrimidin-4-yl}methoxy)-20,22-dimethyl-16-[(4-methylpiperazin-1-yl)methyl]-7,8,15,16-tetrahydro-18,21-etheno-13,9-(metheno)-6,14,17-trioxa-2-thia-3,5-diazacyclononadeca[1,2,3-cd]indene-7-carboxylic Acid]",0.0026,–,–,–
"Cc1c(Cl)c2c(Cl)c(C)c1-c1c(-c3ccc(F)cc3)sc3ncnc(c13)O[C@@H](C(=O)O)Cc1cc(ccc1OCc1ccnc(OC[C@@H]3CN(C)CCCO3)n1)OC[C@@H](CN1CCN(C)CC1)O2 [Example 177, (7R,16R)-19,23-dichloro-1-(4-fluorophenyl)-20,22-dimethyl-10-[(2-{[(2S)-4-methyl-1,4-oxazepan-2-yl]methoxy}pyrimidin-4-yl)methoxy]-16-[(4-methylpiperazin-1-yl)methyl]-7,8,15,16-tetrahydro-18,21-etheno-13,9-(metheno)-6,14,17-trioxa-2-thia-3,5-diazacyclononadeca[1,2,3-cd]indene-7-carboxylic Acid]",0.00929,0.00422,–,–
"Cc1c(Cl)c2c(Cl)c(C)c1-c1c(-c3ccc(F)cc3)sc3ncnc(c13)O[C@@H](C(=O)O)Cc1cc(ccc1OCc1ccnc([C@H]3CC[C@H](OCCOCC4COCCO4)CC3)n1)OC[C@@H](CN1CCN(C)CC1)O2 (stereo partly drawn) [Example 92, (7R,16R)-19,23-dichloro-10-({2-[(1r,4r)-4-{2-[(1,4-dioxan-2-yl)methoxy]ethoxy}cyclohexyl]pyrimidin-4-yl}methoxy)-1-(4-fluorophenyl)-20,22-dimethyl-16-[(4-methylpiperazin-1-yl)methyl]-7,8,15,16-tetrahydro-18,21-etheno-13,9-(metheno)-6,14,17-trioxa-2-thia-3,5-diazacyclononadeca[1,2,3-cd]indene-7-carboxylic Acid]",0.00031,0.000223,–,–
"Cc1c(Cl)c2c(Cl)c(C)c1-c1c(-c3ccc(F)cc3)sc3ncnc(c13)O[C@@H](C(=O)O)Cc1cc(ccc1OCc1ccnc(-c3ccc(OCCN4CCOCC4)cc3)n1)OC[C@@H](CN1CCN(C)CC1)O2 [Example 168, (7R,16R)-19,23-dichloro-1-(4-fluorophenyl)-20,22-dimethyl-16-[(4-methylpiperazin-1-yl)methyl]-10-[(2-{4-[2-(morpholin-4-yl)ethoxy]phenyl}pyrimidin-4-yl)methoxy]-7,8,15,16-tetrahydro-18,21-etheno-13,9-(metheno)-6,14,17-trioxa-2-thia-3,5-diazacyclononadeca[1,2,3-cd]indene-7-carboxylic Acid]",–,–,0.671,0.025
"Cc1c(Cl)c2c(Cl)c(C)c1-c1c(-c3ccc(F)cc3)sc3ncnc(c13)O[C@@H](C(=O)O)Cc1cc(ccc1OCc1ccnc(-c3ccc(OC[C@@H]4CN(C)CCCO4)cc3)n1)OC[C@@H](CN1CCN(C)CC1)O2 [Example 173, (7R,16R)-19,23-dichloro-1-(4-fluorophenyl)-20,22-dimethyl-10-{[2-(4-{[(2S)-4-methyl-1,4-oxazepan-2-yl]methoxy}phenyl)pyrimidin-4-yl]methoxy}-16-[(4-methylpiperazin-1-yl)methyl]-7,8,15,16-tetrahydro-18,21-etheno-13,9-(metheno)-6,14,17-trioxa-2-thia-3,5-diazacyclononadeca[1,2,3-cd]indene-7-carboxylic Acid]",0.00452,0.00114,–,–
